{"source": "ChEMBL document CHEMBL1129013", "about": "“Benzopyran selective estrogen receptor modulators (SERMs): Pharmacological effects and structural correlation with raloxifene” (1996)", "key": {"Rattus norvegicus [1]": {"system": "Rattus norvegicus", "experiment": "Reduction in body weight in rat model at dose 10.0 mg/kg (p.o.)", "type": "functional", "conditions": "route oral"}, "Rattus norvegicus [2]": {"system": "Rattus norvegicus", "experiment": "Reduction in uterine weight in rat model at dose 10.0 mg/kg (p.o.)", "type": "functional", "conditions": "route oral"}, "Rattus norvegicus [3]": {"system": "Rattus norvegicus", "experiment": "Reduction in serum cholesterol in rat model at dose 0.01 mg/kg (p.o.)", "type": "functional, organism-based", "parameters": "dose 0.01 mg/kg"}, "Rattus norvegicus [4]": {"system": "Rattus norvegicus", "experiment": "Reduction in uterine weight in rat model at dose 0.01 mg/kg (p.o.)", "type": "functional", "conditions": "route oral"}, "Rattus norvegicus [5]": {"system": "Rattus norvegicus", "experiment": "Reduction in serum cholesterol in rat model at dose 10.0 mg/kg (p.o.)", "type": "functional, organism-based", "parameters": "dose 10 mg/kg"}, "Rattus norvegicus [6]": {"system": "Rattus norvegicus", "experiment": "Reduction in uterine weight in rat model at dose 0.1 mg/kg (p.o.)", "type": "functional", "conditions": "route oral"}, "Rattus norvegicus [7]": {"system": "Rattus norvegicus", "experiment": "Reduction in body weight in rat model at dose 0.01 mg/kg (p.o.)", "type": "functional", "conditions": "route oral"}, "Rattus norvegicus [8]": {"system": "Rattus norvegicus", "experiment": "Reduction in body weight in rat model at dose 1.0 mg/kg (p.o.)", "type": "functional", "conditions": "route oral"}, "Rattus norvegicus [9]": {"system": "Rattus norvegicus", "experiment": "Reduction in serum cholesterol in rat model at dose 1.0 mg/kg (p.o.)", "type": "functional, organism-based", "parameters": "dose 1 mg/kg"}, "Rattus norvegicus [10]": {"system": "Rattus norvegicus", "experiment": "Reduction in serum cholesterol in rat model at dose 0.1 mg/kg (p.o.)", "type": "functional, organism-based", "parameters": "dose 0.1 mg/kg"}, "Rattus norvegicus [11]": {"system": "Rattus norvegicus", "experiment": "Reduction in body weight in rat model at dose 0.1 mg/kg (p.o.)", "type": "functional", "conditions": "route oral"}, "Rattus norvegicus [12]": {"system": "Rattus norvegicus", "experiment": "Reduction in uterine weight in rat model at dose 1.0 mg/kg (p.o.)", "type": "functional", "conditions": "route oral"}}}
{"smiles": "CC1=C(c2ccc(O)cc2)C(c2ccc(OCCN3CCCCC3)cc2)Oc2cc(O)ccc21", "note": "(configuration not stated)", "values": [{"measurement": "Body weight", "setting": "Rattus norvegicus [1]", "result": 302, "unit": "g"}, {"measurement": "Uterine weight", "setting": "Rattus norvegicus [2]", "result": 135.2, "unit": "mg"}, {"measurement": "Serum cholesterol", "setting": "Rattus norvegicus [3]", "result": 79, "unit": "mg/dL"}, {"measurement": "Uterine weight", "setting": "Rattus norvegicus [4]", "result": 128.2, "unit": "mg"}, {"measurement": "Serum cholesterol", "setting": "Rattus norvegicus [5]", "result": 57.4, "unit": "mg/dL"}, {"measurement": "Uterine weight", "setting": "Rattus norvegicus [6]", "result": 160.2, "unit": "mg"}, {"measurement": "Body weight", "setting": "Rattus norvegicus [7]", "result": 306, "unit": "g"}, {"measurement": "Body weight", "setting": "Rattus norvegicus [8]", "result": 295, "unit": "g"}, {"measurement": "Serum cholesterol", "setting": "Rattus norvegicus [9]", "result": 42.3, "unit": "mg/dL"}, {"measurement": "Serum cholesterol", "setting": "Rattus norvegicus [10]", "result": 69.8, "unit": "mg/dL"}, {"measurement": "Body weight", "setting": "Rattus norvegicus [11]", "result": 281, "unit": "g"}, {"measurement": "Uterine weight", "setting": "Rattus norvegicus [12]", "result": 134.2, "unit": "mg"}]}
{"smiles": "C#C[C@]1(O)CC[C@H]2[C@@H]3CCc4cc(O)ccc4[C@H]3CC[C@@]21C", "note": "[ETHINYL ESTRADIOL]", "values": [{"measurement": "Uterine weight", "setting": "Rattus norvegicus [6]", "result": 319, "unit": "mg"}, {"measurement": "Serum cholesterol", "setting": "Rattus norvegicus [10]", "result": 37.1, "unit": "mg/dL"}, {"measurement": "Body weight", "setting": "Rattus norvegicus [11]", "result": 274, "unit": "g"}]}
{"smiles": "Oc1ccc(C2=Cc3ccc(O)cc3OC2c2ccc(OCCN3CCCCC3)cc2)cc1", "note": "(configuration not stated)", "values": [{"measurement": "Body weight", "setting": "Rattus norvegicus [1]", "result": 284, "unit": "g"}, {"measurement": "Uterine weight", "setting": "Rattus norvegicus [2]", "result": 124.2, "unit": "mg"}, {"measurement": "Serum cholesterol", "setting": "Rattus norvegicus [3]", "result": 92.1, "unit": "mg/dL"}, {"measurement": "Uterine weight", "setting": "Rattus norvegicus [4]", "result": 105.7, "unit": "mg"}, {"measurement": "Serum cholesterol", "setting": "Rattus norvegicus [5]", "result": 53, "unit": "mg/dL"}, {"measurement": "Uterine weight", "setting": "Rattus norvegicus [6]", "result": 132.2, "unit": "mg"}, {"measurement": "Body weight", "setting": "Rattus norvegicus [7]", "result": 334, "unit": "g"}, {"measurement": "Body weight", "setting": "Rattus norvegicus [8]", "result": 287, "unit": "g"}, {"measurement": "Serum cholesterol", "setting": "Rattus norvegicus [9]", "result": 52.6, "unit": "mg/dL"}, {"measurement": "Serum cholesterol", "setting": "Rattus norvegicus [10]", "result": 69.3, "unit": "mg/dL"}, {"measurement": "Body weight", "setting": "Rattus norvegicus [11]", "result": 314, "unit": "g"}, {"measurement": "Uterine weight", "setting": "Rattus norvegicus [12]", "result": 151, "unit": "mg"}]}
